Drawing on US20260242395A1, “AMINOHETEROARYL KINASE INHIBITORS” (ALLORION THERAPEUTICS INC, priority 2022, published 2026), this text covers IC50 for 24 compounds.

Assay type in all cases: biochemical
One test addresses T1, CDK6/CyclinD3 (Homo sapiens, UniProt Q00534).
T1 construct: purchased Carna 04-107
Description: CDK6/CyclinD3 kinase inhibitory activity (Caliper mobility shift). The following applies: enzyme 15 nM, ATP 800 μM, 28° C. 30 min; read-out: CDK6/Cyclin D3 IC50. The method in brief:
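Compound preincubated 10 min at room temperature with CDK6/CyclinD3 (15 nM final) in HEPES pH 7.5/MgCl2/DTT buffer; reaction with 5-FAM peptide (3000 nM) and ATP 800 μM, 30 min at 28°C, stopped with EDTA. Substrate/product separated by microfluidic mobility shift; % conversion converted to % inhibition, IC50 from dose-response curves.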

Another test deals with T2, CDK7/CyclinH/MAT1 (Homo sapiens, UniProt P50613).
T2 construct: purchased Millipore 14-476M
The test can be described thus: CDK7/CyclinH/MAT1 kinase inhibitory activity (Caliper mobility shift). The following applies: enzyme 12.5 nM, ATP 70 μM, 28° C. 30 min; read-out: CDK7/Cyclin H/MAT1 IC50. On the procedure: (§1) CDK7/CyclinH/MAT1 kinase inhibitory activity (IC50): 5 μl of various dilutions of test compound in 1× kinase buffer (20 mM HEPES, pH 7.5, 10 mM MgCl2, 2 mM DTT and 0.01% Triton X-100) was mixed with 10 μL of CDK7/CyclinH/MAT1 (Millipore, 14-476M #, final concentration 12.5 nM in 1× Kinase buffer) in 384 plates and incubated at room temperature for 10 min. To initiate each reaction, 10 μL of peptide solution containing fluorescently-labeled-peptide CTD3 (5-FAM-[…], GL, SY346885 #, final concentration 3000 nM) and ATP (final concentration 70 μM) in 1× Kinase buffer was added to each of the wells containing test compound and CDK7/CyclinH/MAT1 mixture. The reaction is then allowed to proceed at 28° C. for 30 min and terminated by the addition of 25 μL stop buffer (100 mM HEPES pH 7.5, 50 mM EDTA, 0.2% Coating Reagent #3 (Perkin Elmer, 760050 #) and 0.015% Brij-35).
(§2) Following the kinase reaction, Caliper EZ reader II (Downstream voltages: −500V, Upstream voltages: −2250V, Base pressure −0.5 PSI, Screen pressure −1.2 PSI) was used to separate the phosphoiylated (product) and the unphosphorylated (substrate) fluorescently-labeled peptide CTD3 based on their different mobility. Both substrate and product were measured and the ratio of these values were used to generate % conversion by Caliper EZ reader II. These conversion values were then transformed into % inhibition of kinase activity using the formula: % Inhibition=[(MA−X)/(MA−MI)]×100% where MA=conversion value of DMSO only controls, MI=conversion value of no enzyme controls and X=conversion value at any given compound dose. IC50 values were then calculated by plotting dose-response curves and then using the XLfit application in Excel software.

For a further test, the target named is T3, CDK9/CyclinT1 (Homo sapiens, UniProt P50750).
T3 construct: purchased Millipore 14-685M
The test can be described thus: CDK9/CyclinT1 kinase inhibitory activity (Caliper mobility shift). The following applies: enzyme 12.5 nM, ATP 10M, 28° C. 30 min; read-out: CDK9/Cyclin T1 IC50. On the procedure:
as §1, with “CDK9/CyclinT1” for “CDK7/CyclinH/MAT1”, “14-685M” for “14-476M”, “fluorescently-labeled -peptide” for “fluorescently-labeled-peptide”, “[…])” for “70 μM)”
as §2, with “phosphorylated” for “phosphoiylated”

SMILES strings stand for the structures. Bounds are passed on as bounds.

T2 sequence (P50613 whole entry): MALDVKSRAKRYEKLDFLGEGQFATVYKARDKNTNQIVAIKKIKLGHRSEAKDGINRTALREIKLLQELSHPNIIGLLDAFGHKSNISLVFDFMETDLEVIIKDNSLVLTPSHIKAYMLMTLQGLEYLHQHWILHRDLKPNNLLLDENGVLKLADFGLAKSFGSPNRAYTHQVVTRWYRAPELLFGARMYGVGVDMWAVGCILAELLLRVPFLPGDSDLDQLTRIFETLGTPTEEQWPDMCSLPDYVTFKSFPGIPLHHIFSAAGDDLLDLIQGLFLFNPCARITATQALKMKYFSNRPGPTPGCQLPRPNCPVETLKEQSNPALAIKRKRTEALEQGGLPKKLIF
T2 sequence (P51946 whole entry partner): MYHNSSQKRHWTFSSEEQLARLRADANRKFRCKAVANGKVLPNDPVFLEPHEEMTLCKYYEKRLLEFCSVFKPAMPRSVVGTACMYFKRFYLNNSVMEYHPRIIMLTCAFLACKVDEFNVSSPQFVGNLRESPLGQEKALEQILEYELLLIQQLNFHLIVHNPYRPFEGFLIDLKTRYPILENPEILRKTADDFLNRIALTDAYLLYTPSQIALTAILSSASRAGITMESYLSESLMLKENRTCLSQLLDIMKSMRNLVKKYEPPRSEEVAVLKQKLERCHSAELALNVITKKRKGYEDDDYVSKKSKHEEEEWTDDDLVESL
T2 sequence (P51948 whole entry partner): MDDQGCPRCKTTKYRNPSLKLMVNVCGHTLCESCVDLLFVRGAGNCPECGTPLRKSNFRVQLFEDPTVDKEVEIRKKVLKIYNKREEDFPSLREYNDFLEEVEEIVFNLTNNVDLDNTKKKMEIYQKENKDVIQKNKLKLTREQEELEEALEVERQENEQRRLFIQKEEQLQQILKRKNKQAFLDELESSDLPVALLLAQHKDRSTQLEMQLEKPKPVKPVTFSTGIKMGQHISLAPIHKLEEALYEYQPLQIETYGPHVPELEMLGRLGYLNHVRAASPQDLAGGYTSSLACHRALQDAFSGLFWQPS
T1 sequence (Q00534 whole entry): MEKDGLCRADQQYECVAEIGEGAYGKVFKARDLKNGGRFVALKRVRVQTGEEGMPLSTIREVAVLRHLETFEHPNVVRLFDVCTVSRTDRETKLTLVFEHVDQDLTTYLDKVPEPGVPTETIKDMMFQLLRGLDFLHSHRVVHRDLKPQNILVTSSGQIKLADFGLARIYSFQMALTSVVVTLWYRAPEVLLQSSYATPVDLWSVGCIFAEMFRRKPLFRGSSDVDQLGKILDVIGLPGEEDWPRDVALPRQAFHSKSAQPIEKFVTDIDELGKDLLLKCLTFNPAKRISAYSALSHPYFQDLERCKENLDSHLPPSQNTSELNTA
T1 sequence (P30281 whole entry partner): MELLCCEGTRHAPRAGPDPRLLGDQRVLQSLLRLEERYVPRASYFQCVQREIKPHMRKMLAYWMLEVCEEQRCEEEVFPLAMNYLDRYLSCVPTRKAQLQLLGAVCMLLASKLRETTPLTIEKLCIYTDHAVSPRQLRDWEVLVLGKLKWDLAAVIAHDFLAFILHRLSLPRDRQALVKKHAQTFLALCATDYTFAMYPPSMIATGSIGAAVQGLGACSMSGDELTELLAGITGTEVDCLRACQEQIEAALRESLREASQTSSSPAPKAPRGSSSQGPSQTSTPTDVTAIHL
T3 sequence (P50750 whole entry): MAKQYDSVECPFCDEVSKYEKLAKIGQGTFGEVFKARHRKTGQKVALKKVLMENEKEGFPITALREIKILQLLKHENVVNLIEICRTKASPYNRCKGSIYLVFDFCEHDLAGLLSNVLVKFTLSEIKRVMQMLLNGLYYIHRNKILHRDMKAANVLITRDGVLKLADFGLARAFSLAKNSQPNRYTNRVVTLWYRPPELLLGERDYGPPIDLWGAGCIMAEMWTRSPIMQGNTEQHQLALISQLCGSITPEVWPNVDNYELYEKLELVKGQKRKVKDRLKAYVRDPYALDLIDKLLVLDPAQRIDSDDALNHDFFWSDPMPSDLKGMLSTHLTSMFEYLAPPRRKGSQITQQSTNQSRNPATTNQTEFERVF
T3 sequence (O60563 whole entry partner): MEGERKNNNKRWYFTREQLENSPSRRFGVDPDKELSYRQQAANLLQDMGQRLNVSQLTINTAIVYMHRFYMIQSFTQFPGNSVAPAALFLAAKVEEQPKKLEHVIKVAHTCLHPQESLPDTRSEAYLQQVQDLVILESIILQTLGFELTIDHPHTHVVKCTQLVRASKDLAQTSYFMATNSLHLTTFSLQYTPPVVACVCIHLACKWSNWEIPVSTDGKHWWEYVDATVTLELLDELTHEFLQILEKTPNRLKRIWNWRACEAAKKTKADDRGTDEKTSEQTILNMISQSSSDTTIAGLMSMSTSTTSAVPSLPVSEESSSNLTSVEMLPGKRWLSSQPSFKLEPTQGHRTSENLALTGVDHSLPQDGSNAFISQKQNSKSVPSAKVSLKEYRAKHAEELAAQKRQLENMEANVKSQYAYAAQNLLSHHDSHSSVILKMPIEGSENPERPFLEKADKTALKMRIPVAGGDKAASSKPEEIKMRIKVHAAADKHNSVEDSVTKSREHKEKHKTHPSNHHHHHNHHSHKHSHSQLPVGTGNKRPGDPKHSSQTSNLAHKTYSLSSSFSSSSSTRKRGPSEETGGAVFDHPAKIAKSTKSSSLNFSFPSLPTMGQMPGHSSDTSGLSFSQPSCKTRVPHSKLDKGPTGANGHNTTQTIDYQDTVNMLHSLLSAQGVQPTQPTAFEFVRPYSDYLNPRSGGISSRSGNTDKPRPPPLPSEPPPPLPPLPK

Consider `Cc1nc2c(F)cc(-c3nc(N[C@@H]4CCOC[C@H]4O)ncc3Cl)cc2c2c1CCN(C)C2` [Example 37], for which the IC50 on CDK6/CyclinD3 was 0.1 to 1 µM; on CDK7/CyclinH/MAT1 it was no less than 1 µM; on CDK9/CyclinT1, no less than 1 µM.

Turning to `CC1Cc2cnc3c(F)cc(-c4nc(N[C@@H]5CCOC[C@H]5O)ncc4Cl)cc3c2CN1` (single isomer, unassigned) [Example 34b], the IC50 on CDK6/CyclinD3 is 0.1 to 1 µM; on CDK7/CyclinH/MAT1, no less than 1 µM; on CDK9/CyclinT1, 0.1 to 1 µM.

As for `CC1(C)Cc2cnc3c(F)cc(-c4nc(N[C@@H]5CCOC[C@H]5O)ncc4Cl)cc3c2CN1` [Example 30], the IC50 on CDK6/CyclinD3 was 0.01 to 0.1 µM; on CDK7/CyclinH/MAT1, no less than 1 µM; at CDK9/CyclinT1, 0.01 to 0.1 µM.

With `O[C@@H]1COCC[C@H]1Nc1ncc(Cl)c(-c2cc(F)c3ncc4c(c3c2)CNCC4)n1` [Example 9, (3S,4R)-4-((5-chloro-4-(7-fluoro-1,2,3,4-tetrahydrobenzo[c][2,6]naphthyridin-9-yl)pyrimidin-2-yl)amino)tetrahydro-2H-pyran-3-ol], the IC50 on CDK6/CyclinD3, at CDK7/CyclinH/MAT1 and on CDK9/CyclinT1 was 0.1 to 1 µM throughout.

For `Cc1nc2c(F)cc(-c3nc(N[C@@H]4CCOC[C@H]4O)ncc3F)cc2c2c1CC1(CC1)NC2` [Example 65], the IC50 on CDK6/CyclinD3, at CDK7/CyclinH/MAT1 and at CDK9/CyclinT1 was 0.1 to 1 µM in each case.

In the case of `CNC(C)c1cc2cc(-c3nc(N[C@@H]4CCOC[C@H]4O)ncc3Cl)cc(F)c2nc1C` (single isomer, unassigned) [Example 45b], the IC50 at CDK6/CyclinD3 is 0.1 to 1 µM; on CDK7/CyclinH/MAT1, no less than 1 µM; on CDK9/CyclinT1 it was no less than 1 µM.

Regarding `O[C@@H]1COCC[C@H]1Nc1ncc(Cl)c(-c2cc(F)c3c(c2)N2CCNC[C@@H]2CO3)n1` [Example 19, (3S,4R)-4-((5-chloro-4-((R)-7-fluoro-1,2,3,4,4a,5-hexahydrobenzo[b]pyrazino[1,2-d][1,4]oxazin-9-yl)pyrimidin-2-yl)amino)tetrahydro-2H-pyran-3-ol], the IC50 at CDK6/CyclinD3, at CDK7/CyclinH/MAT1 and on CDK9/CyclinT1 was 0.01 to 0.1 µM throughout.

For the compound `Cc1nc2c(F)cc(-c3nc(N[C@@H]4CCOC[C@H]4O)ncc3Cl)cc2c(C)c1[C@H](C)O` (single isomer, unassigned) [Example 15b], the IC50 lay within 0.01 to 0.1 µM on CDK6/CyclinD3, 0.1 to 1 µM at CDK7/CyclinH/MAT1 and 0.1 to 1 µM on CDK9/CyclinT1.

As for `Cc1nc2c(F)cc(-c3nc(N[C@@H]4CCOC[C@H]4O)ncc3F)cc2c(C)c1C(C)O` (single isomer, unassigned) [Example 81a], the figures for the IC50 on CDK6/CyclinD3, on CDK7/CyclinH/MAT1 and on CDK9/CyclinT1 were 0.01 to 0.1 µM, 0.1 to 1 µM and 0.01 to 0.1 µM, respectively.

As to `CC(C)(O)c1cnc2c(F)cc(-c3nc(N[C@@H]4CCOC[C@H]4O)ncc3F)cc2c1Cl` [Example 22, (3S,4R)-4-((4-(4-chloro-8-fluoro-3-(2-hydroxypropan-2-yl)quinolin-6-yl)-5-fluoropyrimidin-2-yl)amino)tetrahydro-2H-pyran-3-ol], the IC50 at CDK6/CyclinD3 was in the range of 0.01 to 0.1 µM; at CDK7/CyclinH/MAT1, 0.1 to 1 µM; at CDK9/CyclinT1, 0.1 to 1 µM.

On to `Cc1nc2c(F)cc(-c3nc(N[C@@H]4CCOC[C@H]4O)ncc3Cl)cc2c2c1CC(C)(C)NC2` [Example 98], for which the IC50 was 0.1 to 1 µM at CDK6/CyclinD3, no less than 1 µM on CDK7/CyclinH/MAT1 and 0.1 to 1 µM at CDK9/CyclinT1.

As for `Cc1c(C(C)(C)O)cnc2c(F)cc(-c3nc(N[C@@H]4CCOC[C@H]4O)ncc3Cl)cc12` [Example 7, (3S,4R)-4-((5-chloro-4-(8-fluoro-3-(2-hydroxypropan-2-yl)-4-methylquinolin-6-yl)pyrimidin-2-yl)amino)tetrahydro-2H-pyran-3-ol], the IC50 is 0.01 to 0.1 µM on CDK6/CyclinD3, no less than 1 µM at CDK7/CyclinH/MAT1 and 0.1 to 1 µM at CDK9/CyclinT1.

In the case of `Cc1c(C(C)(C)O)cnc2c(F)cc(-c3nc(N[C@@H]4CCOC[C@H]4O)ncc3F)cc12` [Example 23, (3S,4R)-4-((5-fluoro-4-(8-fluoro-3-(2-hydroxypropan-2-yl)-4-methylquinolin-6-yl)pyrimidin-2-yl)amino)tetrahydro-2H-pyran-3-ol], the IC50 on CDK6/CyclinD3 lay in the range of 0.01 to 0.1 µM; at CDK7/CyclinH/MAT1, 0.01 to 0.1 µM; on CDK9/CyclinT1, 0.1 to 1 µM.

Regarding `[2H]c1nc2c(F)cc(-c3nc(N[C@@H]4CCOC[C@H]4O)ncc3C)cc2c2c1CC(C)(C)NC2` [Example 102], the IC50 at CDK6/CyclinD3 is 0.1 to 1 µM; at CDK7/CyclinH/MAT1 it was no less than 1 µM; at CDK9/CyclinT1, 0.1 to 1 µM.

Consider `CC(C)(N)c1cnc2ccc(-c3nc(N[C@@H]4CCOC[C@H]4O)ncc3Cl)cc2c1` [Example 26], for which the IC50 at CDK6/CyclinD3 is no less than 1 µM; at CDK7/CyclinH/MAT1, no less than 1 µM; on CDK9/CyclinT1, 0.1 to 1 µM.

As to `Cc1nc2c(F)cc(-c3nc(N[C@@H]4CCOC[C@H]4O)ncc3Cl)cc2cc1C(C)NC1CC1` (single isomer, unassigned) [Example 73b], the IC50 on CDK6/CyclinD3 was 0.01 to 0.1 µM; on CDK7/CyclinH/MAT1, no less than 1 µM; at CDK9/CyclinT1, 0.1 to 1 µM.

With `[2H]c1nc2c(F)cc(-c3nc(N[C@@H]4CCOC[C@H]4O)ncc3F)cc2c(C)c1C(C)(C)O` [Example 94], the figures for the IC50 on CDK6/CyclinD3, at CDK7/CyclinH/MAT1 and at CDK9/CyclinT1 were 0.01 to 0.1 µM, 0.01 to 0.1 µM and 0.1 to 1 µM, respectively.

For `CC1(C)Cc2cnc3c(F)cc(-c4ccnc(N[C@@H]5CCOC[C@H]5O)n4)cc3c2CN1` [Example 107], the IC50 on CDK6/CyclinD3, at CDK7/CyclinH/MAT1 and at CDK9/CyclinT1 was 0.1 to 1 µM each time.

Take `Cc1nc2c(F)cc(-c3nc(N[C@@H]4CCOC[C@H]4O)ncc3Cl)cc2c(C)c1[C@@H](C)O` (single isomer, unassigned) [Example 15a]: the IC50 at CDK6/CyclinD3 was 0.01 to 0.1 µM; at CDK7/CyclinH/MAT1, no less than 1 µM; on CDK9/CyclinT1, 0.1 to 1 µM.

`O[C@@H]1COCC[C@H]1Nc1ncc(Cl)c(-c2cc(F)c3ncc4c(c3c2)C2CCC(C4)N2)n1` (single isomer, unassigned) [Example 20b]: the IC50 on CDK6/CyclinD3, on CDK7/CyclinH/MAT1 and at CDK9/CyclinT1 was 0.1 to 1 µM in each case.

For `CC1(C)NCc2c(cnc3c(F)cc(-c4nc(N[C@@H]5CCOC[C@H]5O)ncc4F)cc23)C1O` (single isomer, unassigned) [Example 106b], the IC50 was 0.01 to 0.1 µM at CDK6/CyclinD3, 0.1 to 1 µM on CDK7/CyclinH/MAT1 and 0.1 to 1 µM on CDK9/CyclinT1.

Take `Cc1nc2c(F)cc(-c3nc(N[C@@H]4CCOC[C@H]4O)ncc3Cl)cc2c(Cl)c1C(C)O` (single isomer, unassigned) [Example 35a]: the IC50 at CDK6/CyclinD3 was 0.01 to 0.1 µM; on CDK7/CyclinH/MAT1, no less than 1 µM; on CDK9/CyclinT1, 0.1 to 1 µM.

As for `Cc1nc2c(F)cc(-c3nc(N[C@@H]4CCOC[C@H]4O)ncc3F)cc2c(C)c1C(C)O` (single isomer, unassigned) [Example 81b], the values for the IC50 at CDK6/CyclinD3, on CDK7/CyclinH/MAT1 and at CDK9/CyclinT1 were 0.01 to 0.1 µM, 0.1 to 1 µM and 0.1 to 1 µM, respectively.

For `CNC(C)(C)c1cnc2c(F)cc(-c3nc(N[C@@H]4CCOC[C@H]4O)ncc3Cl)cc2c1` [Example 36], the IC50 on CDK6/CyclinD3 is 0.1 to 1 µM; on CDK7/CyclinH/MAT1, no less than 1 µM; at CDK9/CyclinT1 it was 0.1 to 1 µM.
